According to patent publication US5036059A, “1,4-Dihydropyridine-3-carboxylate derivatives” (Nippon Shinyaku Company, Limited, priority 1984, dated 1991):
Where a name gives a salt, the structure may show the parent alone.

Legend:
[1] = test system: spontaneously hypertensive rats; assay: Hypotensive action in spontaneously hypertensive rats, systolic arterial blood pressure by tail plethysmography, oral; format: in vivo; settings: 30 mg/kg p.o.
Method: (§1) Hypotensive action of diltiazem (which is a known hypotensive drug) measured by the same method at the doses of 3, 10 and 30 mg/kg were 0, 11.2 and 33.0%, respectively. Hypotensive action of the compound of Example 4 which is one of the most representative compounds of this invention was tested using spontaneously hypertensive rats and was compared with those of Nifedipine and Diltiazem hydrochloride. The method applied was that the drugs were orally given to the rats of which systolic arterial blood pressure were higher than 180 mmHg when it was measured plethysmographically using tail arteries. (Table 3)
Doses in mg/kg (p.o.) are as follows: *0.3 (1.0); **1.0 (3.0); ***30.

[2] = test system: rats (with normal blood pressure); assay: Hypotensive action, mean blood pressure of femoral artery in unanesthetized normotensive rats, oral; format: in vivo; settings: Rattus norvegicus, read-out: % Decreases in Mean Blood Pressure [at peak effect]; for inhibition in vivo at 1 mg/kg: 1 mg/kg oral; for inhibition in vivo at 3 mg/kg: 3 mg/kg oral; for inhibition in vivo at 10 mg/kg: 10 mg/kg oral
Method: Blood pressure of femoral artery of rats (with normal blood pressure) under unanesthetized condition was measured directly using a pressure tranducer.
The present invention compounds were given orally at doses of 1, 3 and 10 mg/kg, and changes in blood pressure were continuously recorded. Percent decreases of mean blood pressure at the peak effect were calculated. The maximum changes in mean blood pressure (%) were shown as "hypotensive action" (Table 2).
as §1

[3] = test system: guinea pig heart; assay: Coronary vasodilating action, constant pressure perfusion of isolated guinea pig heart (Langendorff); settings: Cavia porcellus, via coronary artery; for activation at 0.001 mg: 10^-6 gram/heart; for activation at 0.001 mg / activation at 0.0001 mg: read-out: Perfusion Increasing Rate; for activation at 0.0001 mg: 10^-7 gram/heart
Method: Constant pressure perfusion samples of guinea pig heart isolated by a method according to Langendorff were treated with the present invention compounds by administration via coronary artery and the effect was examined (Table 1).
With reference to coronary vasodilating action of diltiazem measured by the same method, the increasing rates in perfusion by administration of 10^-7, 10^-6 and 10^-5 gram/heart were 4, 16 and 55%, respectively.

`COc1ccc([C@@H]2Sc3ccccc3N(CCN(C)C)C(=O)[C@@H]2OC(C)=O)cc1` [Diltiazem.HCl] was tested, and the “systolic arterial blood pressure” value ([1]; 0.5 hr after administration) was 153.6 ± 5.4, the “systolic arterial blood pressure” value ([1]; 1 hr after administration) was 141.8 ± 10.8 and the “systolic arterial blood pressure” value ([1]; 2 hr after administration) was 156.2 ± 8.8. For the same molecule, the “systolic arterial blood pressure” value ([1]; 3 hr after administration) was 170.5 ± 4.8, the “systolic arterial blood pressure” value ([1]; 5 hr after administration) was 183.2 ± 2.8 and the “systolic arterial blood pressure” value ([1]; 8 hr after administration) was 189.3 ± 4.6. For the same molecule, the “systolic arterial blood pressure” value ([1]; 12 hr after administration) was 188.5 ± 2.0 and the “systolic arterial blood pressure” value ([1]; before administration) was 191.2 ± 5.4.
`CC1=C(C(=O)OC2CCN(Cc3ccccc3)CC2)C(c2cccc([N+](=O)[O-])c2)C(P2(=O)OCCCO2)=C(C)N1` (stereo not drawn) [Example 3, N-Benzyl-4-piperidinyl 2,6-dimethyl-4-(3-nitrophenyl)-5-(2-oxo-1,3,2-dioxaphosphorinan-2-yl)-1,4-dihydropyridine-3-carboxylate] showed an inhibition in vivo at 1 mg/kg [2] of 8.2%, an inhibition in vivo at 3 mg/kg [2] of 11.1% and an inhibition in vivo at 10 mg/kg [2] of 20.9%. The activation at 0.001 mg [3] was 18% and the activation at 0.0001 mg [3] was 10%.
With `CCOC(=O)C1=C(C)NC(C)=C(P2(=O)OCC(C)(C)CO2)C1c1cccc([N+](=O)[O-])c1` (stereo not drawn) [Example 8, Ethyl 2,6-dimethyl-5-(5,5-dimethyl-2-oxo-1,3,2-dioxaphosphorinan-2-yl)-4-(3-nitrophenyl-1)-1,4-dihydropyridine-3-carboxylate] the inhibition in vivo at 1 mg/kg [2] was 8.1%, the inhibition in vivo at 3 mg/kg [2] was 15.5% and the inhibition in vivo at 10 mg/kg [2] was 37.1%. For the same molecule, the activation at 0.001 mg [3] was 33% and the activation at 0.0001 mg [3] was 11%.
Work on `CC1=C(C(=O)OCCN(C)Cc2ccccc2)C(c2cccc([N+](=O)[O-])c2)C(P2(=O)OC(C)CC(C)O2)=C(C)N1` (stereo not drawn) [Example 17, 2-(N-Benzyl-N-methylamino)-ethyl 2,6-dimethyl-5-(4,6-dimethyl-2-oxo-1,3,2-dioxaphosphorinan-2-yl)-4-(3-nitrophenyl)-1,4-dihydropyridine-3-carboxylate] yielded an inhibition in vivo at 1 mg/kg [2] of 24.8%, an inhibition in vivo at 3 mg/kg [2] of 36.8% and an inhibition in vivo at 10 mg/kg [2] of 47%. For the same molecule, the activation at 0.001 mg [3] was 23% and the activation at 0.0001 mg [3] was 10%.
Work on `CCC1(CC)COP(=O)(C2=C(C)NC(C)=C(C(=O)OCCN(C)Cc3ccccc3)C2c2cccc([N+](=O)[O-])c2)OC1` (stereo not drawn) [Example 22, 2-(N-Benzyl-N-methylamino)-ethyl 5-(5,5-diethyl-2-oxo-1,3,2-dioxaphosphorinan-2-yl)-2,6-dimethyl-4-(3-nitrophenyl)-1,4-dihydropyridine-3-carboxylate] yielded an inhibition in vivo at 1 mg/kg [2] of 7.3%, an inhibition in vivo at 3 mg/kg [2] of 10.4% and an inhibition in vivo at 10 mg/kg [2] of 18.4%. It also gave an activation at 0.001 mg [3] of 31% and an activation at 0.0001 mg [3] of 21%.
`CCOC(=O)C1=C(C)NC(C)=C(P2(=O)OCC(C(C)C)CO2)C1c1cccc([N+](=O)[O-])c1` (stereo not drawn) [Example 32, Ethyl 2,6-dimethyl-4-(3-nitrophenyl)-5-(5-isopropyl-2-oxo-1,3,2-dioxaphosphorinan-2-yl)-1,4-dihydropyridine-3-carboxylate] was tested, and the inhibition in vivo at 1 mg/kg [2] was 7.8%, the inhibition in vivo at 3 mg/kg [2] was 21.2% and the inhibition in vivo at 10 mg/kg [2] was 30.5%. For the same molecule, the activation at 0.001 mg [3] was 77% and the activation at 0.0001 mg [3] was 24%.
With `CCOC(=O)C1=C(C)NC(C)=C(P2(=O)OCC3(CCCCC3)CO2)C1c1ccccc1[N+](=O)[O-]` (stereo not drawn) [Example 43, Ethyl 2,6-dimethyl-4-(2-nitrophenyl)-5-(3-oxo-2,4-dioxa-3-phosphaspiro(5,5)undecan-3-yl)-1,4-dihydropyridine-3-carboxylate] the activation at 0.001 mg [3] was 56% and the activation at 0.0001 mg [3] was 12%.
With `CCOC(=O)C1(C(=O)OCC)COP(=O)(C2=C(C)NC(C)=C(C(=O)OCCN(C)Cc3ccccc3)C2c2cccc([N+](=O)[O-])c2)OC1` (stereo not drawn) [Example 45, 2-(N-Benzyl-N-methylamino)-ethyl 5-(5,5-diethoxycarbonyl-2-oxo-1,3,2-dioxaphosphorinan-2-yl)-2,6-dimethyl-4-(3-nitrophenyl)-1,4-dihydropyridine-3-carboxylate] the activation at 0.001 mg [3] was 29% and the activation at 0.0001 mg [3] was 10%.
Molecule `CCOC(=O)C1(C(=O)OCC)COP(=O)(C2=C(C)NC(C)=C(C(=O)OC)C2c2ccccc2[N+](=O)[O-])OC1` (stereo not drawn) [Example 46, Methyl 5-(5,5-diethoxycarbonyl-2-oxo-1,3,2-dioxaphosphorinan-2-yl)-2,6-dimethyl-4-(2-nitrophenyl)-1,4-dihydropyridine-3-carboxylate] has an activation at 0.001 mg [3] of 19% and an activation at 0.0001 mg [3] of 12%.
In the case of `CC1=C(C(=O)OCCN(C)Cc2ccccc2)C(c2cccc([N+](=O)[O-])c2)C(P2(=O)OC(C)(C)C(C)(C)O2)=C(C)N1` (stereo not drawn) [Example 48, 2-(N-Benzyl-N-methylamino)-ethyl 2,6-dimethyl-4-(3-nitrophenyl)-5-(2-oxo-4,4,5,5-tetramethyl-1,3,2-dioxaphospholan-2-yl)-1,4-dihydropyridine-3-carboxylate], the activation at 0.001 mg [3] is reported as 35% and the activation at 0.0001 mg [3] is reported as 13%.
With `CCCOCCOC(=O)C1=C(C)NC(C)=C(P2(=O)OC(C)(C)C(C)(C)O2)C1c1cccc([N+](=O)[O-])c1` (stereo not drawn) [Example 49, 2-n-Propoxyethyl 2,6-dimethyl-4-(3-nitrophenyl)-5-(2-oxo-4,4,5,5-tetramethyl-1,3,2-dioxaphospholan-2-yl)-1,4-dihydropyridine-3-carboxylate] the activation at 0.001 mg [3] was 34% and the activation at 0.0001 mg [3] was 14%.
Molecule `COC(=O)C1=C(C)NC(C)=C(P2(=O)OCCCO2)C1c1ccccc1C(F)(F)F` (stereo not drawn) [Example 50, Methyl 2,6-dimethyl-5-(2-oxo-1,3,2-dioxaphosphorinan-2-yl)-4-(2-trifluoromethylphenyl)-1,4-dihydropyridine-3-carboxylate] has an inhibition in vivo at 1 mg/kg [2] of 42.3%, an inhibition in vivo at 3 mg/kg [2] of 44.3% and an inhibition in vivo at 10 mg/kg [2] of 47.2%. It also gave an activation at 0.001 mg [3] of 46% and an activation at 0.0001 mg [3] of 15%.
In the case of `CC1=C(C(=O)OCCN(C)Cc2ccccc2)C(c2ccccc2C(F)(F)F)C(P2(=O)OCCCO2)=C(C)N1` (stereo not drawn) [Example 52], the inhibition in vivo at 1 mg/kg [2] is reported as 18.4%, the inhibition in vivo at 3 mg/kg [2] is reported as 37.2% and the inhibition in vivo at 10 mg/kg [2] is reported as 42.8%. It also gave an activation at 0.001 mg [3] of 62% and an activation at 0.0001 mg [3] of 10%.
Molecule `COC(=O)C1=C(C)NC(C)=C(P2(=O)OCCCO2)C1c1ccccc1OC(F)F` (stereo not drawn) [Example 53, Methyl 4-(2-difluoromethoxyphenyl)-2,6-dimethyl-5-(2-oxo-1,3,2-dioxaphosphorinan-2-yl)-1,4-dihydropyridine-3-carboxylate] has an inhibition in vivo at 1 mg/kg [2] of 24.5%, an inhibition in vivo at 3 mg/kg [2] of 45.4% and an inhibition in vivo at 10 mg/kg [2] of 49.7%. The activation at 0.001 mg [3] was 25% and the activation at 0.0001 mg [3] was 16%.
In the case of `COC(=O)C1=C(C)NC(C)=C(P2(=O)OCCCO2)C1c1cccc(Cl)c1Cl` (stereo not drawn) [Example 56, Methyl 4-(2,3-dichlorophenyl)-2,6-dimethyl-5-(2-oxo-1,3,2-dioxaphosphorinan-2-yl)-1,4-dihydropyridine-3-carboxylate], the activation at 0.001 mg [3] is reported as 75% and the activation at 0.0001 mg [3] is reported as 55%.
For `CCOC(=O)C1=C(C)NC(C)=C(P2(=O)OCCCO2)C1c1cccc(Cl)c1Cl` (stereo not drawn) [Example 57, Ethyl 4-(2,3-dichlorophenyl)-2,6-dimethyl-5-(2-oxo-1,3,2-dioxaphosphorinan-2-yl)-1,4-dihydropyridine-3-carboxylate], the activation at 0.001 mg [3] was 17% and the activation at 0.0001 mg [3] was 11%.
`CC1=C(C(=O)OCCN(C)Cc2ccccc2)C(c2cccc(Cl)c2Cl)C(P2(=O)OCC(C)(C)CO2)=C(C)N1` (stereo not drawn) [Example 59, 2-(N-Benzyl-N-methylamino)-ethyl 4-(2,3-dichlorophenyl)-2,6-dimethyl-5-(5,5-dimethyl-2-oxo-1,3,2-dioxaphosphorinan-2-yl)-1,4-dihydropyridine-3-carboxylate] gave an inhibition in vivo at 1 mg/kg [2] of 7.1%, an inhibition in vivo at 3 mg/kg [2] of 29.1% and an inhibition in vivo at 10 mg/kg [2] of 35.1%. The activation at 0.001 mg [3] was 33% and the activation at 0.0001 mg [3] was 24%.
`CC1=C(C(=O)OCCN(C)Cc2ccccc2)C(c2ccccc2C(F)(F)F)C(P2(=O)OCC(C)(C)CO2)=C(C)N1` (stereo not drawn) [Example 62, 2-(N-Benzyl-N-methylamino)-ethyl 2,6-dimethyl-5-(5,5-dimethyl-2-oxo-1,3,2-dioxaphosphorinan-2-yl)-4-(2-trifluoromethylphenyl)-1,4-dihydropyridine-3-carboxylate] showed an inhibition in vivo at 1 mg/kg [2] of 10.6%, an inhibition in vivo at 3 mg/kg [2] of 37.4% and an inhibition in vivo at 10 mg/kg [2] of 48.3%. For the same molecule, the activation at 0.001 mg [3] was 70% and the activation at 0.0001 mg [3] was 19%.
`COc1ccc([C@@H]2Sc3ccccc3N(CCN(C)C)C(=O)[C@@H]2OC(C)=O)cc1` [diltiazem, reference compound] showed an inhibition in vivo at 3 mg/kg [2] of 0%, an inhibition in vivo at 10 mg/kg [2] of 11.2% and an inhibition in vivo at 30 mg/kg ([2]; 30 mg/kg oral) of 33%. For the same molecule, the activation at 1e-05 g/heart, 1e-05 g/heart ([3]; 10^-5 gram/heart, read-out: increasing rate in perfusion) was 55%, the activation at 0.001 mg [3] was 16% and the activation at 0.0001 mg [3] was 4%.
